Experimental data reported in ChEMBL document CHEMBL1201862, “PubChem BioAssay data set” (2004).
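Where inhibition never reached the appropriate level, the endpoint shown equals the highest concentration tested. Otherwise, values were interpolated linearly from a five-concentration, 48-hour dose response in 96-well plates. The concentration for 50% growth inhibition is given as GI50.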 Active and inactive are the calls of the source. Cut-off read from the data, not from the text of the source: active = GI50 up to about 1.1 µM and inactive = higher.

Assays:
Assay in all cases: NCI-60 cell line screen, 48 h
[1] = tested on: CCRF-CEM
[2] = tested on: SW-620
[3] = tested on: OVCAR-5
[4] = tested on: U-251
[5] = tested on: M14
[6] = tested on: RXF 393
[7] = tested on: A549
[8] = tested on: SF-539
[9] = tested on: Malme-3M
[10] = tested on: SNB-75
[11] = tested on: UACC-257
[12] = tested on: NCI-H226
[13] = tested on: DU-145
[14] = tested on: NCI-H522
[15] = tested on: SK-OV-3
[16] = tested on: KM12
[17] = tested on: MDA-N
[18] = tested on: HOP-92
[19] = tested on: PC-3
[20] = tested on: SK-MEL-28

Measured: GI50

CCOC1NC(=O)Oc2cc3ccccc3cc21 (stereo not given)
inactive: [1] 36.5 µM | [2] > 100 µM | [3] > 100 µM | [4] 36.1 µM | [5] 39 µM | [6] > 100 µM | [7] > 100 µM | [8] 68.1 µM | [9] > 100 µM | [10] 60.5 µM | [11] > 100 µM | [12] > 100 µM | [13] > 100 µM | [14] > 100 µM | [15] > 100 µM | [16] > 100 µM | [17] > 100 µM | [18] 29.6 µM | [19] 29 µM | [20] > 100 µM

COC(=O)C1C2CC3C1C3C2C(=O)OC (stereo not given)
inactive: [1] > 100 µM | [2] > 100 µM | [3] > 100 µM | [4] > 100 µM | [5] > 100 µM | [6] > 100 µM | [7] > 100 µM | [8] > 100 µM | [9] > 100 µM | [10] > 100 µM | [11] > 100 µM | [12] > 100 µM | [13] > 100 µM | [14] > 100 µM | [15] > 100 µM | [16] > 100 µM | [17] > 100 µM | [18] > 100 µM | [19] > 100 µM | [20] > 100 µM

CN(C)CCCN1CCC2(CCC(C(C)(C)C)CC2)CC1
active: [17] 0.912 µM
inactive: [1] 1.58 µM | [2] 2.4 µM | [3] 3.08 µM | [4] 1.76 µM | [5] 1.85 µM | [6] 1.6 µM | [7] 3.27 µM | [8] 1.88 µM | [9] 1.89 µM | [10] 2.08 µM | [11] 1.41 µM | [12] 6.82 µM | [13] 6.71 µM | [14] 2.49 µM | [15] 9.29 µM | [16] 2.38 µM | [18] 3.18 µM | [19] 2.52 µM | [20] 1.77 µM

CSC1=N/C(=C\c2ccc(C)cc2)C(=O)N1
inactive: [1] 92.5 µM | [2] > 100 µM | [3] > 100 µM | [4] 65.3 µM | [5] > 100 µM | [6] 26.4 µM | [7] > 100 µM | [8] 41.9 µM | [9] > 100 µM | [10] 47.4 µM | [11] > 100 µM | [12] > 100 µM | [13] > 100 µM | [14] 34.1 µM | [15] > 100 µM | [16] > 100 µM | [17] > 100 µM | [18] 50.9 µM | [19] 94.6 µM | [20] > 100 µM

O=C(O)c1ccc(NCc2nc3cc4ccccc4cc3[nH]2)cc1
active: [9] 0.0462 µM
inactive: [1] > 100 µM | [2] > 100 µM | [3] > 100 µM | [4] > 100 µM | [5] > 100 µM | [6] > 100 µM | [7] > 100 µM | [8] > 100 µM | [10] 98.6 µM | [11] 2.63 µM | [12] > 100 µM | [13] > 100 µM | [14] > 100 µM | [15] > 100 µM | [16] > 100 µM | [17] > 100 µM | [18] > 100 µM | [19] > 100 µM | [20] 5.21 µM
